Results published in patent publication US6358522B1, “Pharmaceutical compositions containing lipase inhibitor” (Hoffmann-La Roche Inc., priority 1998, dated 2002).

Assay: Anal leakage of oil in rats on high fat diet with diet-admixed orlistat
Assay type: in vivo
Description: Rats maintained on high fat diet were used as models. […] However, the amount of oil leakage could not easily be determined. Due to coprophagia and extensive grooming activity the rats distributed the oil to a large extent over their fur. Moreover, this stressful condition of unsuccessful grooming provoked considerable excitation of the animals. The area of greasy fur increased in proportion to the amount of unabsorbed fat and was reduced by dietary admixture of selected examples of the above defined food additives. However, for reasons of animal care for comparative evaluation of the additives a surrogate parameter was used to assess effects on oil leakage. Following a meal containing orlistat, unabsorbed fat is temporarily stored in the caecum of the rat prior to excretion. The fat is partly present as floating liquid oil, partly associated with unabsorbable solids.

Structure (SMILES): CCCCCCCCCCC[C@@H](C[C@@H]1OC(=O)[C@H]1CCCCCC)OC(=O)[C@H](CC(C)C)NC=O [orlistat, N-formyl-L-leucine ester with (3S,4S)-3-hexyl-4-[(2S)-2-hydroxy-tridecyl]-2-oxetanone]
- Anal leakage of oil: provoked anal leakage of liquid oil
